Patent publication US20250171437A1 (Agios Pharmaceuticals,Inc., priority 2022, published 2025)

target: T1, human PAH with the R408W mutation (A375 R408W cells) (Homo sapiens, UniProt P00439, R408W); assay: Cell Based Phenylalanine Flux Assay; settings: A375 R408W cells; 24 hrs with compound, then 20 μM sepiapterin and 800 μM 13C9,15N-Phenylalanine for 4 hours; 13C-Tyrosine by LC-MS; average where tested multiple times
T1 construct: expressed in transfected cells
T1 sequence (P00439 1-452 R408W): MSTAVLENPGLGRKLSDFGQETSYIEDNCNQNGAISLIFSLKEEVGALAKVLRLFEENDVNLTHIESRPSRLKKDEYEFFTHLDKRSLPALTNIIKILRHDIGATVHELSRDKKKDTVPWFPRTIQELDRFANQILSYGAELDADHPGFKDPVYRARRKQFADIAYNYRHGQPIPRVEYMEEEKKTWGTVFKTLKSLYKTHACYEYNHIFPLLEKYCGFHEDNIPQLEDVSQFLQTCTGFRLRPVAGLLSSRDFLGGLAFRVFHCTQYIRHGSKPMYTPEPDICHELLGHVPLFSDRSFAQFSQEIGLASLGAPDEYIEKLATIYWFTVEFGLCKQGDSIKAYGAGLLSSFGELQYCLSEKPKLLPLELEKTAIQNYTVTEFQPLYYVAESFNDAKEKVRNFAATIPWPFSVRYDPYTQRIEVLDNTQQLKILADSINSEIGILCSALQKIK
Outline: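 A375 cells stably expressing lentiviral human PAH R408W were treated with compounds (10-point 2-fold dilutions, 0.5% DMSO, duplicate) for 24 h at 37 °C. Then 20 μM sepiapterin and 800 μM 13C9,15N-Phe were added for 4 h; media 13C-Tyr was measured by LC-MS to give AC50.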

| Compound | AC50 |
| --- | --- |
| CC(C)(O)C1CCN(c2ccc3c(C(=O)N4CCc5[nH]cnc5[C@@H]4c4nc5cccc(F)c5o4)cnn3c2)CC1 [Example 367, (R)-(4-(7-fluorobenzo[d]oxazol-2-yl)-6,7-dihydro-1H-imidazo[4,5-c]pyridin-5(4H)-yl)(6-(4-(2-hydroxypropan-2-yl)piperidin-1-yl)pyrazolo[1,5-a]pyridin-3-yl)methanone] | 1 to 5 µM |
| O=C(c1ocnc1C(F)F)N1CCc2[nH]cnc2[C@H]1c1nc2cccc(Cl)c2o1 [Example 425, (S)-(4-(7-chlorobenzo[d]oxazol-2-yl)-6,7-dihydro-1H-imidazo[4,5-c]pyridin-5(4H)-yl)(4-(difluoromethyl)oxazol-5-yl)methanone] | ≤ 0.5 µM |
| CC(O)c1nc(Br)c(C(=O)N2CCc3[nH]cnc3[C@@H]2c2nc3cc(F)ccc3o2)o1 (single isomer, unassigned) [Example 224] | 1 to 5 µM |
| Cn1cc(-c2nnc(C(=O)N3CCc4[nH]cnc4[C@H]3c3nc4ccc(F)c(F)c4o3)o2)cn1 [Example 515, (S)-(4-(6,7-difluorobenzo[d]oxazol-2-yl)-6,7-dihydro-1H-imidazo[4,5-c]pyridin-5(4H)-yl)(5-(1-methyl-1H-pyrazol-4-yl)-1,3,4-oxadiazol-2-yl)methanone] | 0.5 to 1 µM |
| O=C(c1cnn2cc(N3CCOCC3)ccc12)N1CCc2[nH]cnc2[C@@H]1c1nc2cccc(F)c2o1 [Example 366, (R)-(4-(7-fluorobenzo[d]oxazol-2-yl)-6,7-dihydro-1H-imidazo[4,5-c]pyridin-5(4H)-yl)(6-morpholinopyrazolo[1,5-a]pyridin-3-yl)methanone] | 1 to 5 µM |
| Cc1ccc2oc([C@@H]3c4nc[nH]c4CCN3C(=O)c3oc(C(C)(C)O)nc3C(F)F)nc2c1 [Example 311, (S)-(4-(difluoromethyl)-2-(2-hydroxypropan-2-yl)oxazol-5-yl)(4-(5-methylbenzo[d]oxazol-2-yl)-6,7-dihydro-1H-imidazo[4,5-c]pyridin-5(4H)-yl)methanone] | ≤ 0.5 µM |
| O=C(c1cnco1)N1CCc2[nH]cnc2[C@H]1c1nc2ccccc2o1 [Example 547, (S)-(4-(benzo[d]oxazol-2-yl)-6,7-dihydro-1H-imidazo[4,5-c]pyridin-5(4H)-yl)(oxazol-5-yl)methanone] | 0.5 to 1 µM |
| Cc1ccc2oc([C@@H]3c4nc[nH]c4CCN3C(=O)c3nnc(-c4ccc(F)cn4)o3)nc2c1 [Example 99, (S)-(5-(5-fluoropyridin-2-yl)-1,3,4-oxadiazol-2-yl)(4-(5-methylbenzo[d]oxazol-2-yl)-6,7-dihydro-1H-imidazo[4,5-c]pyridin-5(4H)-yl)methanone] | 0.5 to 1 µM |
| CN(C)c1ccc2c(C(=O)N3CCc4[nH]cnc4[C@@H]3c3nc4cc(F)ccc4o3)cnn2c1 [Example 92, (R)-(6-(dimethylamino)pyrazolo[1,5-a]pyridin-3-yl)(4-(5-fluorobenzo[d]oxazol-2-yl)-6,7-dihydro-1H-imidazo[4,5-c]pyridin-5(4H)-yl)methanone] | ≥ 5 µM |
| CC(C)(O)c1nc(C(F)F)c(C(=O)N2CCc3[nH]cnc3[C@@H]2c2nc3cc(F)cc(F)c3o2)o1 [Example 308, (R)-(4-(5,7-difluorobenzo[d]oxazol-2-yl)-6,7-dihydro-1H-imidazo[4,5-c]pyridin-5(4H)-yl)(4-(difluoromethyl)-2-(2-hydroxypropan-2-yl)oxazol-5-yl)methanone] | ≤ 0.5 µM |
| CN1CCN(c2ccc3c(C(=O)N4CCc5[nH]cnc5[C@H]4c4nc5cc(F)ccc5o4)cnn3c2)CC1 [Example 65, (S)-(4-(5-fluorobenzo[d]oxazol-2-yl)-6,7-dihydro-1H-imidazo[4,5-c]pyridin-5(4H)-yl)(6-(4-methylpiperazin-1-yl)pyrazolo[1,5-a]pyridin-3-yl)methanone] | 1 to 5 µM |
| O=C(c1oc(C2(O)CC2)nc1C(F)F)N1CCc2[nH]cnc2[C@@H]1c1nc2cc(F)ccc2o1 [Example 142, (R)-(4-(difluoromethyl)-2-(1-hydroxycyclopropyl)oxazol-5-yl)(4-(5-fluorobenzo[d]oxazol-2-yl)-6,7-dihydro-1H-imidazo[4,5-c]pyridin-5(4H)-yl)methanone] | 1 to 5 µM |
| Cn1cc(-c2nnc(C(=O)N3CCc4[nH]cnc4[C@@H]3c3nc4c(F)ccc(F)c4o3)o2)cn1 [Example 517, (R)-(4-(4,7-difluorobenzo[d]oxazol-2-yl)-6,7-dihydro-1H-imidazo[4,5-c]pyridin-5(4H)-yl)(5-(1-methyl-1H-pyrazol-4-yl)-1,3,4-oxadiazol-2-yl)methanone] | 1 to 5 µM |
| Cn1nc(C(F)F)nc1C(=O)N1CCc2[nH]cnc2[C@H]1c1nc2c(F)ccc(F)c2o1 [Example 486, (S)-(4-(4,7-difluorobenzo[d]oxazol-2-yl)-6,7-dihydro-1H-imidazo[4,5-c]pyridin-5(4H)-yl)(3-(difluoromethyl)-1-methyl-1H-1,2,4-triazol-5-yl)methanone] | 0.5 to 1 µM |

The remaining lines, values ahead:

| AC50 | Compound |
| --- | --- |
| ≤ 0.5 µM | O=C(c1oc(-c2ccc(F)cn2)nc1C(F)F)N1CCc2[nH]cnc2[C@H]1c1nc2cccc(F)c2o1 [Example 632, (S)-(4-(difluoromethyl)-2-(5-fluoropyridin-2-yl)oxazol-5-yl)(4-(7-fluorobenzo[d]oxazol-2-yl)-6,7-dihydro-1H-imidazo[4,5-c]pyridin-5(4H)-yl)methanone] |
| 1 to 5 µM | Cc1ncoc1C(=O)N1CCc2[nH]cnc2[C@@H]1c1nc2cccc(F)c2o1 [Example 570, (R)-(4-(7-fluorobenzo[d]oxazol-2-yl)-6,7-dihydro-1H-imidazo[4,5-c]pyridin-5(4H)-yl)(4-methyloxazol-5-yl)methanone] |
| ≥ 5 µM | Cn1cc(-c2nnc(C(=O)N3Cc4[nH]cnc4[C@H]3c3nc4ccccc4o3)o2)cn1 [Example 935, (S)-(4-(benzo[d]oxazol-2-yl)-4,6-dihydropyrrolo[3,4-d]imidazol-5(1H)-yl)(5-(1-methyl-1H-pyrazol-4-yl)-1,3,4-oxadiazol-2-yl)methanone] |
| ≤ 0.5 µM | Cc1ccc2oc([C@@H]3c4nc[nH]c4CCN3C(=O)c3nnc(-c4cnn(C(F)F)c4)o3)nc2c1 [Example 673, (S)-(5-(1-(difluoromethyl)-1H-pyrazol-4-yl)-1,3,4-oxadiazol-2-yl)(4-(5-methylbenzo[d]oxazol-2-yl)-6,7-dihydro-1H-imidazo[4,5-c]pyridin-5(4H)-yl)methanone] |
| 1 to 5 µM | Cc1cc(C(=O)N2CCc3[nH]cnc3[C@H]2c2nc3ccccc3o2)n(C)n1 [Example 779, (S)-(4-(benzo[d]oxazol-2-yl)-6,7-dihydro-1H-imidazo[4,5-c]pyridin-5(4H)-yl)(1,3-dimethyl-1H-pyrazol-5-yl)methanone] |
| 1 to 5 µM | O=C(c1cnn2cc(N3CCC(O)CC3)ccc12)N1CCc2[nH]cnc2[C@H]1c1nc2cc(F)cc(F)c2o1 [Example 699, (S)-(4-(5,7-difluorobenzo[d]oxazol-2-yl)-6,7-dihydro-1H-imidazo[4,5-c]pyridin-5(4H)-yl)(6-(4-hydroxypiperidin-1-yl)pyrazolo[1,5-a]pyridin-3-yl)methanone] |
| ≤ 0.5 µM | Cc1ccc2oc([C@@H]3c4nc[nH]c4CCN3C(=O)c3oc(-c4cn(C)cn4)nc3C(F)F)nc2c1 [Example 784, (S)-(4-(difluoromethyl)-2-(1-methyl-1H-imidazol-4-yl)oxazol-5-yl)(4-(5-methylbenzo[d]oxazol-2-yl)-6,7-dihydro-1H-imidazo[4,5-c]pyridin-5(4H)-yl)methanone] |
| 0.5 to 1 µM | Cc1nc(C(=O)N2CCc3[nH]cnc3[C@H]2c2nc3c(C)cccc3o2)n(C)n1 [Example 819, (S)-(1,3-dimethyl-1H-1,2,4-triazol-5-yl)(4-(4-methylbenzo[d]oxazol-2-yl)-6,7-dihydro-1H-imidazo[4,5-c]pyridin-5(4H)-yl)methanone] |
| 1 to 5 µM | Cc1ccc2oc([C@H]3c4nc[nH]c4CCN3C(=O)c3oc(-c4cncn4C)nc3C(F)F)nc2c1 [Example 757, (R)-(4-(difluoromethyl)-2-(1-methyl-1H-imidazol-5-yl)oxazol-5-yl)(4-(5-methylbenzo[d]oxazol-2-yl)-6,7-dihydro-1H-imidazo[4,5-c]pyridin-5(4H)-yl)methanone] |
| ≤ 0.5 µM | Cn1cc(-c2nnc(C(=O)N3CCc4[nH]cnc4[C@H]3c3nc4ccccc4o3)o2)cn1 [Example 581, (S)-(4-(benzo[d]oxazol-2-yl)-6,7-dihydro-1H-imidazo[4,5-c]pyridin-5(4H)-yl)(5-(1-methyl-1H-pyrazol-4-yl)-1,3,4-oxadiazol-2-yl)methanone] |
| ≤ 0.5 µM | Cc1c(F)ccc2oc([C@@H]3c4nc[nH]c4CCN3C(=O)c3oc(C(C)(C)O)nc3C(F)F)nc12 [Example 719, (S)-(4-(difluoromethyl)-2-(2-hydroxypropan-2-yl)oxazol-5-yl)(4-(5-fluoro-4-methylbenzo[d]oxazol-2-yl)-6,7-dihydro-1H-imidazo[4,5-c]pyridin-5(4H)-yl)methanone] |

same assay, conditions: A375 cells expressing R408W PAH; 24 hrs with compound, then 20 μM sepiapterin and 800 μM 13C9,15N-Phenylalanine for 4 hours; 13C-Tyrosine by LC-MS; average where tested multiple times

| AC50 | Compound |
| --- | --- |
| 1 to 5 µM | O=C(c1nnc(-c2cn[nH]c2)o1)N1CCc2[nH]cnc2C1c1nc2cc(F)ccc2o1 (centres unmarked) |
